The NIST ThermoML archive (doi:10.1021/je060271a)
± gives the expanded uncertainty stated by the source.

Settings: 303.15 K, Liquid, Vibrating tube method

CCCCC(=O)OCC(COC(=O)CCCC)(COC(=O)CCCC)COC(=O)CCCC [pentaerythritol tetrapentanoate]
Settings	mass density [kg/m3]
24416 kPa	1025.8 ± 1.2
24455 kPa	1025.9 ± 1.2
24486 kPa	1025.8 ± 1.2
24518 kPa	1026 ± 1.2
24556 kPa	1025.8 ± 1.2
24588 kPa	1025.8 ± 1.2
24618 kPa	1026.1 ± 1.2
24648 kPa	1025.9 ± 1.2
24685 kPa	1026.1 ± 1.2
24717 kPa	1026 ± 1.2
24757 kPa	1026 ± 1.2
24790 kPa	1025.9 ± 1.2
24823 kPa	1026.1 ± 1.2
24863 kPa	1026.1 ± 1.2
24893 kPa	1026.2 ± 1.2
24922 kPa	1026 ± 1.2
24956 kPa	1026.1 ± 1.2
24986 kPa	1026.1 ± 1.2
25015 kPa	1026.2 ± 1.2
25045 kPa	1026.1 ± 1.2
25080 kPa	1026.2 ± 1.2
25109 kPa	1026.2 ± 1.2
25144 kPa	1026.2 ± 1.2
25174 kPa	1026.2 ± 1.2
25203 kPa	1026.3 ± 1.2
25233 kPa	1026.4 ± 1.2
25269 kPa	1026.3 ± 1.2
25298 kPa	1026.2 ± 1.2
25328 kPa	1026.3 ± 1.2
25364 kPa	1026.3 ± 1.2
25394 kPa	1026.4 ± 1.2
25430 kPa	1026.2 ± 1.2
25460 kPa	1026.4 ± 1.2
25490 kPa	1026.3 ± 1.2
25527 kPa	1026.3 ± 1.2
25558 kPa	1026.5 ± 1.2
25588 kPa	1026.4 ± 1.2
25624 kPa	1026.5 ± 1.2
25654 kPa	1026.6 ± 1.2
25686 kPa	1026.6 ± 1.2
25753 kPa	1026.5 ± 1.2
25785 kPa	1026.6 ± 1.2
25816 kPa	1026.6 ± 1.2
25854 kPa	1026.6 ± 1.2
25885 kPa	1026.7 ± 1.2
25916 kPa	1026.7 ± 1.2
25954 kPa	1026.8 ± 1.2
25985 kPa	1026.7 ± 1.2
26023 kPa	1026.6 ± 1.2
26054 kPa	1026.7 ± 1.2
26086 kPa	1026.8 ± 1.2
26119 kPa	1026.7 ± 1.2
26157 kPa	1026.8 ± 1.2
26190 kPa	1026.8 ± 1.2
26222 kPa	1027 ± 1.2
26261 kPa	1026.9 ± 1.2
26294 kPa	1026.9 ± 1.2
26326 kPa	1027 ± 1.2
26365 kPa	1027 ± 1.2
26398 kPa	1026.9 ± 1.2
26431 kPa	1027 ± 1.2
26469 kPa	1027 ± 1.2
26503 kPa	1027 ± 1.2
26536 kPa	1027 ± 1.2
26575 kPa	1027.2 ± 1.2
26609 kPa	1027 ± 1.2
26642 kPa	1027 ± 1.2
26686 kPa	1027.2 ± 1.2
26712 kPa	1027.1 ± 1.2
26753 kPa	1027.2 ± 1.2
26787 kPa	1027.1 ± 1.2
26822 kPa	1027.2 ± 1.2
26863 kPa	1027.3 ± 1.2
26897 kPa	1027.2 ± 1.2
26931 kPa	1027.2 ± 1.2
26966 kPa	1027.3 ± 1.2
27007 kPa	1027.3 ± 1.2
27042 kPa	1027.2 ± 1.2
27077 kPa	1027.3 ± 1.2
27119 kPa	1027.3 ± 1.2
27156 kPa	1027.3 ± 1.2
27191 kPa	1027.3 ± 1.2
27233 kPa	1027.5 ± 1.2
27268 kPa	1027.3 ± 1.2
27303 kPa	1027.5 ± 1.2
27338 kPa	1027.4 ± 1.2
27381 kPa	1027.4 ± 1.2
27416 kPa	1027.6 ± 1.2
27452 kPa	1027.5 ± 1.2
27495 kPa	1027.6 ± 1.2
27531 kPa	1027.5 ± 1.2
27574 kPa	1027.6 ± 1.2
27611 kPa	1027.7 ± 1.2
27647 kPa	1027.7 ± 1.2
27683 kPa	1027.6 ± 1.2
27727 kPa	1027.6 ± 1.2
27763 kPa	1027.7 ± 1.2
27800 kPa	1027.6 ± 1.2
27844 kPa	1027.8 ± 1.2
27881 kPa	1027.8 ± 1.2
27919 kPa	1027.7 ± 1.2
27964 kPa	1027.8 ± 1.2
28003 kPa	1027.8 ± 1.2
28041 kPa	1027.8 ± 1.2
28089 kPa	1027.9 ± 1.2
28128 kPa	1027.9 ± 1.2
28160 kPa	1027.9 ± 1.2
28193 kPa	1027.8 ± 1.2
28221 kPa	1027.9 ± 1.2
28249 kPa	1028 ± 1.2
28282 kPa	1028 ± 1.2
28310 kPa	1028 ± 1.2
28338 kPa	1028 ± 1.2
28366 kPa	1028 ± 1.2
28399 kPa	1028 ± 1.2
28427 kPa	1027.9 ± 1.2
28461 kPa	1028.1 ± 1.2
28489 kPa	1028 ± 1.2
28518 kPa	1028.1 ± 1.2
28546 kPa	1028.1 ± 1.2
28580 kPa	1028 ± 1.2
28609 kPa	1028.1 ± 1.2
28638 kPa	1028.2 ± 1.2
28672 kPa	1028.1 ± 1.2
28700 kPa	1028.2 ± 1.2
28729 kPa	1028.2 ± 1.2
28764 kPa	1028.3 ± 1.2
28792 kPa	1028.2 ± 1.2
28821 kPa	1028.3 ± 1.2
28856 kPa	1028.3 ± 1.2
28885 kPa	1028.5 ± 1.2
28915 kPa	1028.3 ± 1.2
28950 kPa	1028.4 ± 1.2
28978 kPa	1028.3 ± 1.2
29008 kPa	1028.4 ± 1.2
29043 kPa	1028.4 ± 1.2
29072 kPa	1028.4 ± 1.2
29102 kPa	1028.5 ± 1.2
29132 kPa	1028.5 ± 1.2
29168 kPa	1028.4 ± 1.2
29198 kPa	1028.4 ± 1.2
29228 kPa	1028.5 ± 1.2
29264 kPa	1028.6 ± 1.2
29294 kPa	1028.6 ± 1.2
29325 kPa	1028.5 ± 1.2
29356 kPa	1028.5 ± 1.2
29392 kPa	1028.5 ± 1.2
29422 kPa	1028.6 ± 1.2
29453 kPa	1028.6 ± 1.2
29483 kPa	1028.6 ± 1.2
29520 kPa	1028.7 ± 1.2
29550 kPa	1028.7 ± 1.2
29587 kPa	1028.7 ± 1.2
29617 kPa	1028.6 ± 1.2
29648 kPa	1028.8 ± 1.2
29684 kPa	1028.7 ± 1.2
29716 kPa	1028.7 ± 1.2
29749 kPa	1028.8 ± 1.2
29779 kPa	1028.8 ± 1.2
29810 kPa	1028.8 ± 1.2
